Reference: patent US20060211751A1, “Zolmitriptan crystal forms” (priority 2004, published 2006)

What was measured:
Format in all cases: physicochemical
[1] = Transformation of zolmitriptan crystal forms by heating in a conventional oven, form determined by XRD; conditions: for Crystal form after heating: about 1.5 to 2 hours, conventional oven, XRD
Procedure: Zolmitriptan (0.5 g) crystalline forms were heated in a conventional oven for a period of about 1.5 to 2 hours at different temperatures. The crystal form of the samples was determined by XRD before and after heating.

[2] = Transformation by pressing (crystal form before and after pressing); conditions: for Crystal Form after pressing: 100 mg pressed with approximately 1300 psi during 2 minutes
[3] = Transformation by slurry in other solvents (n-hexane, toluene, water) and drying, form determined by XRD
Description: Similarly to example 6 Zolmitriptan samples were slurried from other solvents or solvent systems after dissolution and precipitation from a specific solvent.

SMILES	stability upon heating (conversion to Form A) ([1]; heated at about 60 °C to about 110 °C for about 2 hours)	Crystal form after heating ([1]; heating temp. 60 °C)	Crystal form after heating ([1]; heating temp. 100 °C)	Crystal form after heating ([1]; heating temp. 110 °C)	Crystal Form after pressing [2]	transformation to other crystal form on pressing [2]	XRD sample (form after treatment) ([3]; Toluene, dried 63 °C under reduced pressure)	XRD sample (form after treatment) ([3]; Water, dried 63 °C under reduced pressure)	XRD sample (form after treatment) ([3]; immersed in 10 v/w Toluene, filtered, sucked ½ hour on Buchner)	XRD sample (form after treatment) ([3]; immersed in 10 v/w Water, filtered, sucked ½ hour on Buchner)	XRD sample (form after treatment) ([3]; immersed in 10 v/w n-Hexane, filtered, sucked ½ hour on Buchner)	XRD sample (form after treatment) ([3]; n-Hexane, dried 63 °C under reduced pressure)
CN(C)CCc1c[nH]c2ccc(C[C@H]3COC(=O)N3)cc12 [Amorphous form]	does not convert to Form A	Amorph	Amorph	Amorph	Amorphous Form	not transform to other crystal form	–	–	–	–	–	–
CN(C)CCc1c[nH]c2ccc(C[C@H]3COC(=O)N3)cc12 [Form N]	–	N + A	–	–	Form N	not transform to other crystal form	Form A	Form A	Form K	Form A	Form D	Form A
